Laboratory results taken from PMC8251711 (Angewandte Chemie (International Ed. in English), 2021).

Target: LAT1 (Homo sapiens, UniProt Q01650)
Experiment: [3H]-gabapentin uptake competition assay in LN229 cells
Assay type: cell-based
Details: read-out: IC50, [3H]-gabapentin uptake competition

LAT1, sequence (Q01650 whole entry): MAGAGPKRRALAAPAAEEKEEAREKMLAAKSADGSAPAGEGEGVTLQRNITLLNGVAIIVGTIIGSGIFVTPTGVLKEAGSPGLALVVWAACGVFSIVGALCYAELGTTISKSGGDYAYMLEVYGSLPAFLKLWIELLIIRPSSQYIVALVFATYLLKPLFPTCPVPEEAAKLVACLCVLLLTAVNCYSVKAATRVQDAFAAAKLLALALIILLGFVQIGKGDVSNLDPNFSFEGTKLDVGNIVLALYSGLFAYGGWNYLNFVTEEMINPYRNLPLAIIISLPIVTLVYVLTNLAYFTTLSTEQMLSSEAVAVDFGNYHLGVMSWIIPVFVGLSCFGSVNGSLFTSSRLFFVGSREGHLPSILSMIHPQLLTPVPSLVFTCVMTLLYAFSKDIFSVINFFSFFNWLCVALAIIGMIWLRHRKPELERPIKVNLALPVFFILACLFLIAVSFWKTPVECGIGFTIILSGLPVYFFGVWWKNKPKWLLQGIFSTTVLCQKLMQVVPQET
LAT1, sequence (P08195 102-630 partner): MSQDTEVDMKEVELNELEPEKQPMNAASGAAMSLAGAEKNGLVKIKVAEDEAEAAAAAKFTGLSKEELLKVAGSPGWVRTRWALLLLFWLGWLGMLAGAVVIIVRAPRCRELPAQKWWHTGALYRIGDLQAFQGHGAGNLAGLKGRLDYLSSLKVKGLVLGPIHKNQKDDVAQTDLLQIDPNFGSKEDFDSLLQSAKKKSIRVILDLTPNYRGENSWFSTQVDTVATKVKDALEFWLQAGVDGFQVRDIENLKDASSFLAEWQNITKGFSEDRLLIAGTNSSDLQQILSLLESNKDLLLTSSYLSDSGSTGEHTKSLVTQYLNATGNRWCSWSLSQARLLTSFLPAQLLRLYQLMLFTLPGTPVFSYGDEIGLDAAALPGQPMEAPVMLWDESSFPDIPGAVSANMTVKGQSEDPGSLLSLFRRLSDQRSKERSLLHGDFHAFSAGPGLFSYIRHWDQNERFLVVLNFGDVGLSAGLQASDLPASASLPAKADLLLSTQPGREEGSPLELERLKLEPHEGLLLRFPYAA

`Nc1cc(COc2c(Cl)cc(C[C@H](N)C(=O)O)cc2Cl)c2oc(-c3ccccc3)nc2c1` [JPH203] gave an IC50 of 29 nM.
